Source: doi:10.1101/630459v1 (bioRxiv, 2019)
Marks after values point to notes of the source that are not given here. Each block holds one compound with its values, some of them ahead of it.

Assays:
Format in all cases: in vivo, BALB/cAnNRj mice
Serum parameter analysis = test: Serum parameter analysis
active caspase-3 = test: Indirect immunohistochemistry of active caspase-3 in organ cryosections
Blood parameter analysis = test: Blood parameter analysis
[1] = cisplatin 20 mg/kg BW i.p. once, d1, mean, n = 3
[2] = cisplatin 20 mg/kg BW i.p. once, d2, mean, n = 8
[3] = cisplatin 20 mg/kg BW i.p. once, d2, mean, n = 9
[4] = cisplatin 20 mg/kg BW i.p. once, d3, mean, n = 4
[5] = cisplatin 20 mg/kg BW i.p. once, day 3, n = 3, mean ± SD
[6] = cisplatin 20 mg/kg BW i.p. once, d2, mean, n = 12
[7] = cisplatin 20 mg/kg BW i.p. once, d3, mean, n = 5
[8] = busulfan 18.8 mg/kg i.p., d3, mean, n = 6
[9] = busulfan 18.8 mg/kg i.p., d5, mean, n = 10
[10] = busulfan 18.8 mg/kg i.p. day 0, 2, 4, day 5, n = 5, mean ± SD
[11] = busulfan 18.8 mg/kg i.p., d5, mean, n = 11
[12] = doxorubicin 4 mg/kg BW i.p., d8, mean, n = 3
[13] = doxorubicin 4 mg/kg BW i.p., d15, mean, n = 4
[14] = doxorubicin 4 mg/kg BW i.p. day 0, 7, 14, day 15, n = 3, mean ± SD
[15] = doxorubicin 4 mg/kg BW i.p. day 0, 7, 14, day 15, n = 4, mean ± SD

SMILES: N.N.[Cl][Pt][Cl] [Cisplatin]
ALT (Serum parameter analysis; [1]): 58 U/L | AST (Serum parameter analysis; [1]): 122 U/L | CK (Serum parameter analysis; [1]): 180.7 U/L | Creatinine (Serum parameter analysis; [1]): 16.67 µmol/L | Urea (Serum parameter analysis; [1]): 6.32 mmol/L | ALT (Serum parameter analysis; [2]): 88.88 U/L | AST (Serum parameter analysis; [2]): 200* U/L | CK (Serum parameter analysis; [3]): 372.6 U/L | Creatinine (Serum parameter analysis; [3]): 27.67** µmol/L | Urea (Serum parameter analysis; [3]): 15.09* mmol/L | ALT (Serum parameter analysis; [4]): 63.5 U/L | AST (Serum parameter analysis; [4]): 183.8 U/L | CK (Serum parameter analysis; [4]): 586.3* U/L | Creatinine (Serum parameter analysis; [4]): 22.25 µmol/L | Urea (Serum parameter analysis; [4]): 11.08 mmol/L | caspase-3 activation, kidneys (active caspase-3; cisplatin 20 mg/kg BW i.p. once, day 2, n = 3, mean ± SD): 1.0 ± 0.1 % area | caspase-3 activation, liver (active caspase-3; [5]): 4.3 ± 0.7 % area | caspase-3 activation, lungs (active caspase-3; [5]): 0.5 ± 0.1 % area | caspase-3 activation, spleen (active caspase-3; cisplatin 20 mg/kg BW i.p. once, day 3, n = 4, mean ± SD): 10.5 ± 4.8 % area | HCT (Blood parameter analysis; [1]): 43.5** % | HGB (Blood parameter analysis; [1]): 15.9* g/dL | PLT (Blood parameter analysis; [1]): 797 10^3/µl | RBC (Blood parameter analysis; [1]): 10.23 10^6/µl | WBC (Blood parameter analysis; [1]): 5.63 10^3/µl | HCT (Blood parameter analysis; [6]): 40.5% | HGB (Blood parameter analysis; [6]): 15.08 g/dL | RBC (Blood parameter analysis; [6]): 9.45 10^6/µl | WBC (Blood parameter analysis; [6]): 4.85** 10^3/µl | HCT (Blood parameter analysis; [7]): 41.6% | HGB (Blood parameter analysis; [7]): 15.38 g/dL | PLT (Blood parameter analysis; [7]): 1147** 10^3/µl | RBC (Blood parameter analysis; [7]): 9.81e+06 µL⁻¹ | WBC (Blood parameter analysis; [7]): 3.68** 10^3/µl

CK (Serum parameter analysis; [8]): 141.5 U/L | Creatinine (Serum parameter analysis; [8]): 11.17 µmol/L | Urea (Serum parameter analysis; [8]): 7.81 mmol/L | CK (Serum parameter analysis; [9]): 160.2 U/L | Creatinine (Serum parameter analysis; [9]): 12.6 µmol/L | Urea (Serum parameter analysis; [9]): 7.19 mmol/L | caspase-3 activation, liver (active caspase-3; [10]): 3.0 ± 0.1 % area | caspase-3 activation, lungs (active caspase-3; [10]): 0.4 ± 0.1 % area | HCT (Blood parameter analysis; [8]): 42.0% | HGB (Blood parameter analysis; [8]): 15.2 g/dL | PLT (Blood parameter analysis; [8]): 849.3 10^3/µl | RBC (Blood parameter analysis; [8]): 9.79 10^6/µl | WBC (Blood parameter analysis; [8]): 4730 µL⁻¹ | HCT (Blood parameter analysis; [11]): 35.2% | HGB (Blood parameter analysis; [11]): 13.3 g/dL | PLT (Blood parameter analysis; [11]): 1.175e+06 µL⁻¹ | RBC (Blood parameter analysis; [11]): 8.32 10^6/µl | WBC (Blood parameter analysis; [11]): 4940 µL⁻¹
SMILES: CS(=O)(=O)OCCCCOS(C)(=O)=O [Busulfan]
ALT (Serum parameter analysis; [8]): 55.33 U/L | AST (Serum parameter analysis; [8]): 82.5 U/L | ALT (Serum parameter analysis; [9]): 87.1 U/L | AST (Serum parameter analysis; [9]): 84.4 U/L

CK (Serum parameter analysis; [12]): 109.7 U/L | Creatinine (Serum parameter analysis; [12]): 15.33* µmol/L | Urea (Serum parameter analysis; [12]): 7.73 mmol/L | CK (Serum parameter analysis; [13]): 195.3* U/L | Creatinine (Serum parameter analysis; [13]): 16.25** µmol/L | Urea (Serum parameter analysis; [13]): 7 mmol/L | caspase-3 activation, liver (active caspase-3; [14]): 3.5 ± 1.5 % area | caspase-3 activation, lungs (active caspase-3; [14]): 0.7 ± 0.1 % area | caspase-3 activation, heart (active caspase-3; [15]): 2.2 ± 0.7 % area | caspase-3 activation, kidneys (active caspase-3; [15]): 1.1 ± 0.3 % area | caspase-3 activation, lungs (active caspase-3; doxorubicin 4 mg/kg BW i.p., day 8, n = 3, mean ± SD): 0.6 ± 0.2 % area | HCT (Blood parameter analysis; [12]): 41.2% | PLT (Blood parameter analysis; [12]): 1011 10^3/µl | RBC (Blood parameter analysis; [12]): 9.62 10^6/µl | WBC (Blood parameter analysis; [12]): 9.2 10^3/µl | HCT (Blood parameter analysis; [13]): 34.1*** % | PLT (Blood parameter analysis; [13]): 1.106e+06 µL⁻¹ | RBC (Blood parameter analysis; [13]): 7.98*** 10^6/µl | WBC (Blood parameter analysis; [13]): 6.5 10^3/µl
SMILES: COc1cccc2c1C(=O)c1c(O)c3c(c(O)c1C2=O)C[C@@](O)(C(=O)CO)C[C@@H]3O[C@H]1C[C@H](N)[C@H](O)[C@H](C)O1 [Doxorubicin]
ALT (Serum parameter analysis; [12]): 90.33** U/L | AST (Serum parameter analysis; [12]): 94.67 U/L | ALT (Serum parameter analysis; [13]): 52.25 U/L | AST (Serum parameter analysis; [13]): 96.5 U/L
